Data taken from PMC6225478, “Natural Scaffolds with Multi-Target Activity for the Potential Treatment of Alzheimer’s Disease” (Molecules : A Journal of Synthetic Chemistry and Natural …, 2018).
Several values for one entry are separate records, joined by “and”; a condition that tells them apart may be missing. Equal entries are not always repeated. Where two headings read alike, the source gives them in different places.

Assays:
AChE [1] = tested on: AChE; parameters: method as in earlier work; details: ref 40 (Ali et al.); read-out: AChEi (means ± SEMs of triplicate experiments); cited from earlier work
[2] = Antioxidant activity (DPPH radical scavenging assay); details: DPPH 100 µM in methanol, 30 min
Protocol: The DPPH assay is routinely practiced for the assessment of the free radical scavenging potential of an antioxidant molecule.
The DPPH radical scavenging assay was performed in 96-well microplates according to the method reported by Blois with some modifications.
A freshly prepared solution of DPPH in methanol (100 µM final concentration) was added to test compounds methanolic solution. The mixtures were shaken vigorously and left to stand in the dark for 30 min at room temperature. Then absorbance was read at 520 nm using a spectrophotometric plate reader (Victor 3 Perkin-Elmer).
The antioxidant activity was determined as the RSA% (radical scavenging activity) and calculated using the following equation: RSA% = 100 × [(Ao − Ai)/Ao] where Ao and Ai are the DPPH absorbance in the absence or in the presence of antioxidants, respectively. Different sample concentrations were used in order to obtain anti-radical curves for calculating the EC50 values. Anti-radical curves were plotted referring to log concentration on the x-axis and their RSA% on the y-axis. The EC50 values and statistical analyses were processed using the GraphPad Prism 5 software (San Diego, CA, USA).
Values of all parameters are expressed as mean ± SEM of at least three independent measurements in triplicate.

Aβ1–40 = target: T1, Aβ1–40 (Homo sapiens, UniProt P05067); assay: Inhibition of Aβ1–40 aggregation (ThT fluorescence); assay type: biochemical; details: Aβ1–40 30 μM; for IC50: 2 h at 25 °C, ThT fluorescence; for iAβ %I (100μM): percentage of inhibition at 100 μM inhibitor
T1 construct: diluting Aβ1–40 (EZBiolab, Carmel, IN, USA); purchased EZBiolab, Carmel, IN, USA
Protocol: The spectrofluorimetric assays measured ThT fluorescence in the presence of Aβ and were done as previously described [39]. Co-incubation samples were prepared in 96-well black, non-binding microplates (Greiner Bio-One GmbH, Frickenhausen, Germany) by diluting Aβ1–40 (EZBiolab, Carmel, IN, USA) alone or in the presence of the inhibitor to a final concentration of 30 μM and 100 μM, respectively, in PBS (pH 7.4) containing 10% DMSO and 2% 1,1,1,3,3,3-hexafluoro-2-propanol (HFIP). After 2 h of incubation at 25 °C, 25 μM ThT solution in phosphate buffer (pH 6.0) was added and fluorescence was read in a multi-plate reader Infinite M1000 Pro (Tecan, Cernusco S.N., Italy). […] Assays were run in triplicate. Values are expressed as mean ± SEM.

BChE from equine serum = target: T2, BChE from equine serum (Equus caballus, UniProt P81908); assay: BChE inhibition, modified Ellman's spectrophotometric assay; assay type: biochemical; details: for esBChEi %I (10μM): percentage of inhibition at 10 μM inhibitor, equine serum BChE
T2 construct: purchased Sigma-Aldrich, Milan, Italy; host or cells: equine serum
Protocol: (§1) A modified protocol of Ellman’s spectrophotometric assay [54] adapted to a 96-well plate procedure was followed as previously described [39]. Incubation samples of AChE from electric eel or BChE from equine serum (eeAChE, 463 U/mg, and esBChE, 13 U/mg, Sigma-Aldrich, Milan, Italy) were set in phosphate buffer (pH 8.0) containing 0.5 mM 5,5′-dithiobis(2-nitrobenzoic acid) (DTNB; Sigma-Aldrich, Milan, Italy) as the chromophoric reagent alone or in the presence of the inhibitor (10 μM). Incubations were carried out in clear flat-bottomed, 96-well plates (Greiner Bio-One GmbH, Frickenhausen, Germany) in duplicate. […] After incubation for 20 min at 25 °C, 0.5 mM acetyl- or butyrylthiocholine iodide (Sigma-Aldrich, Milan, Italy) were added as the substrates and AChE-catalyzed hydrolysis was followed by measuring the increase of absorbance at 412 nm for 5 min at 25 °C in a Tecan Infinite M1000 Pro multiplate reader (Tecan, Cernusco S.N., Italy). Inhibition values and IC50s were calculated with a GraphPad Prism as the mean of three independent experiments and are expressed as mean ± SEM.

AChE from electric eel = target: T3, AChE from electric eel (Electrophorus electricus, UniProt O42275); assay: biochemical
T3 construct: purchased Sigma-Aldrich, Milan, Italy
Protocol: as §1

AChE [3] = tested on: AChE; parameters: method as in PMID 20692939; details: cited from earlier work
BChE = tested on: BChE; parameters: method as in PMID 28286309; details: at 100 μg/mL; cited from earlier work
Aβ = tested on: Aβ; parameters: method as in PMID 21261647; details: read-out: Inhibitory activity of Aβ aggregation IC50; cited from earlier work
AChE [4] = tested on: AChE; parameters: method as in PMID 28286309; details: at 100 μg/mL; cited from earlier work
[5] = acetylcholinesterase from electric eel, mean ± SEM, read-out: eeAChEi IC50 (μM ± SEM)
[6] = butyrylcholinesterase from equine serum, mean ± SEM, i.a. = not active

T1 sequence (P05067 672-711): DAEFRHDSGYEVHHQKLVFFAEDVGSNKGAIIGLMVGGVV
T3 sequence (O42275 24-633): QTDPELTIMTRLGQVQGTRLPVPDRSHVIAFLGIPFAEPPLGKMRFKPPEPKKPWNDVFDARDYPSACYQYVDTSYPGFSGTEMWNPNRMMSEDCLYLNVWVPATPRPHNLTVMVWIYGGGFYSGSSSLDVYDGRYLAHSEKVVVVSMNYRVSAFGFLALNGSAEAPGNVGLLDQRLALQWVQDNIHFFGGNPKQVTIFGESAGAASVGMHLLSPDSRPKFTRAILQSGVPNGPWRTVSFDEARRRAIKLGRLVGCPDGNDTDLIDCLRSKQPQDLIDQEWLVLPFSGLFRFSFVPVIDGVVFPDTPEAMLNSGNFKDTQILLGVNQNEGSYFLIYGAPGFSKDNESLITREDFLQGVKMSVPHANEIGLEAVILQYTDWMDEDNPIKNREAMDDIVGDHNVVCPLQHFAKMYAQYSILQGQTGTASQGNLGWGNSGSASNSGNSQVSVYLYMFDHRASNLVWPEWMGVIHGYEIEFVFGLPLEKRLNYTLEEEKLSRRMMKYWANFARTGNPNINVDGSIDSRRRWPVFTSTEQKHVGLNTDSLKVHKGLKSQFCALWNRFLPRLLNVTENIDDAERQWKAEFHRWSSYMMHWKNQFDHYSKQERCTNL
T2 sequence (P81908 whole entry): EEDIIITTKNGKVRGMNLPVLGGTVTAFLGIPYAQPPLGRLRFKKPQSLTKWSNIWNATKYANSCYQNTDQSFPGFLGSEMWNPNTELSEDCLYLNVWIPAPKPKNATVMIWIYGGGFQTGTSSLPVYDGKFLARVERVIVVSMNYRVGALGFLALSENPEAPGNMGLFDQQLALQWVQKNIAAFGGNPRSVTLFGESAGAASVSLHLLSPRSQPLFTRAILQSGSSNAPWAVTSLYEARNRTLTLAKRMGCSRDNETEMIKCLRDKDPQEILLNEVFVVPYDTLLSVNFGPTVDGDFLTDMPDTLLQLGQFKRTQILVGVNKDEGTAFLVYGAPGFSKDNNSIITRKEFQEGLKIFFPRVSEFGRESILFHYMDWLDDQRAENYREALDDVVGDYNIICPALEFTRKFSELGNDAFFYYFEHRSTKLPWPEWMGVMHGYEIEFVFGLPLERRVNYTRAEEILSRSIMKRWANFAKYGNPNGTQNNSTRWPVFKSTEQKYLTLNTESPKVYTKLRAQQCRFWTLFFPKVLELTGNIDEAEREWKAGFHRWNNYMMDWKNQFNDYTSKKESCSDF

O=Cc1cc2ccc(=O)oc2cc1O [6-formyl-umbelliferone]
IC50 (AChE [1]): 16.7 ± 1.62 µM

O=Cc1c(O)ccc2ccc(=O)oc12 [8-formyl-umbelliferon]
IC50 (AChE [1]): 19.1 ± 0.57 µM

Oc1c(I)cc(Cl)c2cccnc12 [Clioquinol, reference compound]
Antioxidant Activity EC50 (μmol/µmol of DPPH ± SEM) [2]: 0.74 ± 0.04 μmol/µmol of DPPH | IC50 (Aβ1–40; read-out: iAβ IC50 (μM ± SEM)): 7.6 ± 0.8 µM | esBChEi %I (10μM) (BChE from equine serum): %I (10μM): 10 ± 1% | IC50 (AChE from electric eel; [5]): 8.12 ± 1 µM

CC[C@H](C)[C@@H]1NC(=O)C(C(C)=O)=C1O [Compound 1, Tenuazonic acid]
Antioxidant Activity EC50 (μmol/µmol of DPPH ± SEM) [2]: 2.6 μmol/µmol of DPPH and 2.6 ± 0.2 μmol/µmol of DPPH | IC50 (Aβ1–40; iAβ IC50 (μM ± SEM)): ~100 µM | iAβ %I (100μM) (Aβ1–40): %I (100μM): 50 ± 8 | IC50 (AChE from electric eel): 8.13 ± 0.08 µM

C/C=C/c1cc2c(c(=O)o1)[C@@H](O)[C@@H](O)[C@H](C)O2 [Compound 2, 2-epi-Radicinol]
Antioxidant Activity EC50 (μmol/µmol of DPPH ± SEM) [2]: > 100 μmol/µmol of DPPH | IC50 (Aβ1–40; read-out: iAβ IC50 (μM ± SEM)): 74 ± 1 µM | esBChEi IC50 (μM ± SEM) (BChE from equine serum; [6]): i.a. | IC50 (AChE from electric eel; [5]): 6.86 ± 0.67 µM

COc1c(C)c2c(c(O)c1C/C=C(\C)CCC(=O)O)C(=O)OC2 [Compound 3, Mycophenolic acid]
Antioxidant Activity EC50 (μmol/µmol of DPPH ± SEM) [2]: 14.7 μmol/µmol of DPPH and 14.7 ± 3.4 μmol/µmol of DPPH | iAβ %I (100μM) (Aβ1–40): %I (100μM): 38 ± 3 | esBChEi IC50 (μM ± SEM) (BChE from equine serum; [6]): i.a. | IC50 (AChE from electric eel; [5]): 7.84 ± 0.72 µM

COc1cc(O)c2c(c1)C[C@@H](C)OC2=O [Compound 4, 6-Methoxymellein]
Antioxidant Activity EC50 (μmol/µmol of DPPH ± SEM) [2]: > 100 μmol/µmol of DPPH | IC50 (Aβ1–40; read-out: iAβ IC50 (μM ± SEM)): 98 ± 3 µM | esBChEi %I (10μM) (BChE from equine serum): %I (10μM): 10 ± 3% | IC50 (AChE from electric eel; [5]): 11.4 ± 0.8 µM

C/C=C/c1cc2c(c(=O)o1)C(=O)[C@@H](O)[C@H](C)O2 [Compound 5, Radicinin]
Antioxidant Activity EC50 (μmol/µmol of DPPH ± SEM) [2]: >100 μmol/µmol of DPPH | iAβ %I (100μM) (Aβ1–40): %I (100μM): 44 ± 3 | esBChEi %I (10μM) (BChE from equine serum): %I (10μM): 6 ± 1% | IC50 (AChE from electric eel; [5]): 8.96 ± 0.97 µM

COC(=O)/C=C/c1ncn(C)c1CC=C(C)C [Compound 6, Fungerin]
Activity as an AChE inhibitor (AChE [3]): medium-high micromolar range | Antioxidant Activity EC50 (μmol/µmol of DPPH ± SEM) [2]: >100 μmol/µmol of DPPH | iAβ %I (100μM) (Aβ1–40): %I (100μM): 33 ± 9 | IC50 (BChE from equine serum; butyrylcholinesterase from equine serum, mean ± SEM, i.a. = not active, read-out: esBChEi IC50 (μM ± SEM)): 1.75 ± 0.59 µM | Potency on BChE compared to that on AChE (BChE from equine serum; esBChE vs eeAChE IC50): about 50 times | IC50 (AChE from electric eel; [5]): 86 ± 15 µM

COc1ccc2c3c1O[C@H]1C[C@@H](O)C=C[C@@]31CCN(C)C2 [Galantamine]
Percentage of inhibition against BChE (BChE): 81.93 ± 2.52%

O=C(O)c1cc(O)c(O)c(O)c1 [Gallic acid, reference compound]
Antioxidant Activity EC50 (μmol/µmol of DPPH ± SEM) [2]: 0.054 ± 0.004 μmol/µmol of DPPH

O=c1c(O)c(-c2ccc(O)c(O)c2)oc2cc(O)cc(O)c12 [Quercetin, reference compound]
IC50 (Aβ1–40; read-out: iAβ IC50 (μM ± SEM)): 0.82 ± 0.07 µM

Oc1ccc(/C=C/c2cc(O)cc3c2[C@H](c2cc(O)cc(O)c2)[C@@H](c2ccc(O)c(O)c2)O3)cc1 [scirpusin A]
IC50 (Aβ): 0.7 ± 0.3 µM

pteryxin
Percentage of inhibition against BChE (BChE): 91.62 ± 1.53% | Percentage of inhibition against AChE (AChE [4]): 9.30 ± 1.86%

ε-viniferin glucoside
IC50 (Aβ): 0.2 ± 0.3 µM
